How the values were obtained:
[1] = siRNA retention by Quant-iT RiboGreen assay; type: physicochemical; conditions: A2 siRNA-aNPs with variations in N/P, tri-caprylin content, cholesterol content and type of phospholipid (FIG. 13); in most cases
Protocol: The Quant-iT RiboGreen assay (Thermo Fisher) was used to quantify the amount of siRNA loaded inside the formulated particles. The assay was performed using a black 96-well plate. The formulation sample with a theoretical siRNA concentration of 133.3 μg/mL, was diluted 200 times in TE buffer (10 mM Tris-HCl, 1 mM, EDTA, pH 7.5 in DEPC-treated water) and with a TE buffer containing 2% Triton™ X-100, in a black 96-well plate to a total volume of 100 μl. The Triton detergent will disrupt the lipid-based nanoparticles; therefore, all siRNA (retained plus unretained) becomes accessible for the Quant-iT RiboGreen reagent. Controls of siRNA of known concentration (28.6 μg/mL) were diluted 53.3 times in both TE buffer and TE buffer containing 2% Triton in a 96-well plate to a total volume of 100 μl. Next, RiboGreen reagent was diluted 200 times with TE buffer and with TE buffer containing Triton. 100 μl of this dilution was added to each well containing sample or control to bring the total volume in the plate to 200 μl. Subsequently, the samples' fluorescence was measured on a Tecan Spark® microplate reader at an excitation wavelength of 480 nm and emission wavelength of 520 nm.
The recovery of siRNA was determined as:
The siRNA retention=recovery×entrapment.

C57BL/6 mice = assay: In vivo Firefly luciferase expression; conditions: 0.5 mg/kg Firefly luciferase mRNA in aNP, bolus injection, 16 hours, two animals (FIG. 16)
Protocol: After 16 hours, the animals were sacrificed and the liver, spleen and femur collected. Organs were processed to yield single cell suspensions. 1/10th of the liver was cut into small pieces, incubated for 15 min, 37° C., 50 RPM with 5 mL liberase solution. Next, the digested liver was put through a 70 μm strainer and collected in a 50 mL falcon tube. After washing with 1×PBS, the cells was resuspended in 15 mL 1×PBS. 1/10th of the spleen was cut into small pieces and put through a 70 μm strainer and collected in a 50 mL falcon tube. After washing with 1×PBS, 1 mL of lysis buffer (BD Pharm Lyse™, cat #555899, diluted 10 times in diH2O) was added and incubated for 4 minute at room temperature. The cells were washed with 1×PBS and resuspended in 15 mL 1×PBS. Both ends of the femur were broken. The bone marrow cells were flushed from the inside of the bone with 10 mL 1×PBS through a 70 μm strainer and collected in a 50 mL falcon tube. The cells were centrifugated and 1 mL lysis buffer (BD Pharm Lyse™, cat #555899, diluted 10 times in diH2O) was added to the pellet and incubated for 1 minute at room temperature. […] All cell suspensions were counted and 500000 cells were seeded in a V-bottom plate. […] 40 μL was transferred to a white 96-well plate and luminescence was measured using the following settings: Settle time: 1000 ms; Integration time: 500 ms; Open filter.

With `CCCCCCCCOC(=O)CCN(CCCN(CCCCN(CCCN(CCC(=O)OCCCCCCCC)CCC(=O)OCCCCCCCC)CCCN(CCC(=O)OCCCCCCCC)CCC(=O)OCCCCCCCC)CCCN(CCC(=O)OCCCCCCCC)CCC(=O)OCCCCCCCC)CCC(=O)OCCCCCCCC` [Example A2, G1-ACR-nC8-8] the “siRNA retention (Ribogreen assay)” value [1] was “high siRNA retention” and the “Luminescence intensity of single cell suspensions from liver, spleen and bone marrow (tissue targeting)” value (C57BL/6 mice) was “target spleen and bone marrow tissue efficiently”.

Source: patent US20250325491A1, “POLYVALENT MOLECULE BASED LIPID NANOPARTICLES FOR NUCLEIC ACID DELIVERY” (Bio-TRIP B.V., priority 2022, published 2025)
